Reference: patent US20100249413A1, “STABILIZED PHARMACEUTICAL COMPOSITION” (priority 2006, published 2010)

Experiments:
[1] = bulk material, reported in Patent Document 2; cited from earlier work
[2] = reported in Patent Document 1; cited from earlier work
[3] = bulk material, reported in Patent Document 2; cited from earlier work; remark: listed apart in the source
cancer proliferation = settings: reported in Patent Document 1; cited from earlier work
[4] = Light stability of compound A solution with various stabilizers: photolyzed substances by HPLC (Experimental Example 1); format: physicochemical; settings: compound A drug solution 5 mg/mL, D65 lamp/1000 lux, 24 hours, room temperature
Protocol: Each sample was stored upside-down under a condition of D65 lamp/1000 lux in a constantly changing room temperature for 24 hours to evaluate the stability by measuring the increased amounts of photolyzed substances. The measurement of photolyzed substances was carried out using HPLC.
Mobile phase (liquid A): 0.1% trifluoroacetic acid aqueous solution/acetonitrile=9:2, (liquid B) acetonitirle, gradient % (capacity) B: 0% (0 to 60 min)/linear 75% (60 to 80 min)/linear 0% (80 to 100 min), column:TSK-gel ODS-80TsQA, 4.6×150 mm, particle diameter 5 μm (produced by Tosoh Corp.), flow rate: 1 mL/min, column temperature: 40° C., detection: UV 270 nm.

Row | Structure (SMILES) | hygroscopicity [1] | toxicity [2] | storage stability (humidity, long-term storage) [3] | cancer proliferation-inhibitory activity in vivo (cancer proliferation) | Photolyzed Substance Amount (%) [4] [%]
1 | COCCn1c2c([n+](Cc3cnccn3)c1C)C(=O)c1ccccc1C2=O.[Cl-] [chloride of compound A, 1-(2-methoxyethyl)-2-methyl-4,9-dioxo-3-(pyrazin-2-ylmethyl)-4,9-dihydro-1H-naphtho[2,3-d]imidazol-3-ium chloride] | has hygroscopicity | low in toxicity | unstable to humidity | excellent cancer proliferation-inhibitory activity in vivo | 
2 | COCCn1c2c([n+](Cc3cnccn3)c1C)C(=O)c1ccccc1C2=O [compound A, 1-(2-methoxyethyl)-2-methyl-4,9-dioxo-3-(pyrazin-2-ylmethyl)-4,9-dihydro-1H-naphtho[2,3-d]imidazol-3-ium] |  |  |  |  | 3.4
